What all share (format): cell-based
For assay [1], the system named is human uroepithelial cells.
Assay [2] deals with human uroepithelial cells. The source holds these as a separate data set.
Assay [3] deals with human uroepithelial cells. The source holds these as a separate data set.

Results on 10 compounds are retold here after patent US9943576B2 (priority 2014, dated 2018).

Regarding `O=C(O)CN(CCN(CC(=O)O)CC(=O)O)CC(=O)O` [EDTA], the “penetration of fluorescent gelatin, RFU relative to untreated control” value in assay [1] worked out at 300%. Moreover, the “Typical Results” value in assay [2] is “Increase”.
Regarding Protamine sulfate, the “Typical Results” value in assay [2] is reported as “Inhibited”.
For the compound octyl phenol ethoxylate [Triton-X100], in assay [3], the “increase vs saline in the amount of BoNT/A that permeated the in vitro urothelium” value is listed as 3.6 fold. In assay [2], the “Typical Results” value is “Increase (Dose response)”.
For the compound `OCc1ccccc1` [Benzyl Alcohol], the “Typical Results” value in assay [2] is reported as “Slight Increase (1% at 2”.
For the compound Benzalkonium bromide, the “Typical Results” value in assay [2] is “No Effect”.
On to Poly-L-Arginine, for which, in assay [2], the “Typical Results” value is reported as “Inhibited”.
Still for that read-out and setting: with `CCOCCOCCO` [Diethylene glycol mono-ethyl ether] the entry was “No Effect”; with `CCCCCCCC/C=C\CCCCCCCC(=O)OCCOCC(OCCO)C1OCC(OCCO)C1OCCO` (stereo not shown) [Tween 80], “Increase (Dose response)”.
On the same count and under the same terms, to Poly-L-lysine Hydrobromide belongs “Increase (Dose response)”.
Nonoxynol 9: in assay [3], the “increase vs saline in the amount of BoNT/A that permeated the in vitro urothelium” value came to 3 fold. In addition, in assay [2], the “Typical Results” value is “Increase (Dose response)”.
